# Where two headings read alike, the source gives them in different places.
# Legend:
# [1] = tested on: Left Cardiac Ventricle (dp/dt max), heart rate, blood pressure; assay: Cardiotonic effect in anesthetized Beagle dogs (dp/dt max, heart rate, blood pressure); assay type: in vivo; conditions: for ED50: Canis lupus familiaris, cumulative 0.001 to 0.3 mg/0.1 ml/Kg, read-out: ED50 for dp/dt max in Left Cardiac Ventricle (dose attaining 50% increase)
# Description: Male and female Beagle dogs in a weight range of from 10 to 15 Kg were anesthetized to provide them for the test. The dogs were anesthetized by intravenous injection with sodium pentobarbital at a dose of […], and the anesthetized condition was maintained by subsequent intravenous injection with sodium pentobarbital at a dose of 4 mg/Kg/hr. A cannula for drip infusion either of physiological saline solution or anesthetic injection was inserted into a femoral vein, and a cannula for measuring arterial blood pressure was inserted into a femoral artery via a pressure transducer. Heart rate was recorded by conducting R-wave of the electrocardiogram (ECG) to a heart beat counter. Secondary induction from electrocardiogram was measured via a bioelectricity-adapted amplifier. Internal pressure of left cardiac ventricle was measured by inserting a catheter-type pressure transducer from a left carotid into left cardiac ventricle. Differential values by time of the internal pressure in left cardiac ventricle (dp/dt max) were measured by conducting the internal pressure in left cardiac ventricle to a derivative amplifier. The test compound was cummulatively administrated at a rate of from 0.001 to 0.3 mg/0.1 ml/Kg though a cannula inserted into a femoral vein. Based on a dose-response curve obtained, ED50, a dose attaining 50% increase of the dp/dt max in left cardiac ventricle, was determined.
# [2] = tested on: platelet aggregation (rabbit platelet rich plasma); assay: Preventive effect on platelet aggregation in vitro (aggregometer; rabbit platelet rich plasma; ADP or collagen induced); assay type: cell-based, rabbits; conditions: for EC50: Oryctolagus cuniculus, Platelet, rabbit PRP
# Description: Preventive Effect on Platelet Aggregation The preventive effect on platelet aggregation of the compounds and the complexes of the present invention was evaluated in vitro based on the preventive effect on the platelet aggregation induced by adenosine diphosphate (ADP) and collagen, which is determined by using an aggregometer, Hematracer PAT-606 produced by Nicho Bioscience Co., Ltd. Blood collected from rabbits containing 0.38% citric acid was centrifuged at 1100 rpm for 15 min. to obtain platelet rich plasm (PRP). The PRP obtained was then centrifuged at 3500 rpm for 10 min., and the supernatant obtained was provided as platelet poor plasma (PPP). PRP was diluted with PPP to adjust the concentration of platelets in PRP to a range of from 2×10^8 /ml to 5×10^8 ml. .left brkt-top.Either ADP at the final concentration of 10 μM or collagen at the final concentration of 20 μg/ml, which was prepared with SKF buffer solution (Collagen reagent Horm, Hormon Chemie) was used for the induction of platelet aggregation. .right brkt-bot. Test compound was dissolved into dimethyl sulfoxide (DMSO), then 0.5 ml of PRP prepared as described above was added to 0.5 μl of the solution, then mixed for about 3 min. Then, 0.2 ml portion was taken out of the mixture, and either ADP solution or collagen solution in an amount of 22 μl was added thereto to proceed to the measurement of platelet aggregation for 10 min. by using an aggregometer. The preventive effect on platelet aggregation was determined in the prevention rate (%) in respect to the aggregation rate in the check plot. The rate of prevention onto platelet aggregation was calculated according to the following equation. Platelet Aggregation Prevention Rate (%)=(Maximum Aggregation Rate(%) of Platelet when only DMSO is added-Maximum Aggregation Rate(%) of Platelet when Test Compound and DMSO are added).div.Maximum Aggregation Rate(%) of Platelet when only DMSO is added Based on the dose-response curve obtained according to the equation described above, EC50, a dose attaining 50% prevention of platelet aggregation, was determined.
# Mice = assay: Preventive effect on thrombus-causing death (collagen + epinephylline i.v. in mice); assay type: in vivo; conditions: for ED50: Mus musculus, po, 0.5 h, read-out: ED50 for preventing Thrombus-causing Death
# Description: Preventive Effect on Thrombus-causing Death
# Mice in a state without feeding for a night were orally administrated with a test compound, and then injected intravenously with collagen in an amount of 400 μg/Kg and epinephylline in an amount of 50 μg/Kg through their tail at a fixed speed in accordance with the method of DiMinno and Silver (DiMinno, G. and Silver, M. J., J. Pharmacol. Exp. Thor., 225, 57-60, 1983). After 30 min., the mice were checked to determine their survival rate and to calculate EC50, a dose attaining 50% prevention of the death of the mice. The collagen and epinephylline were used in a form of a mixed solution prepared with SKF buffer solution and saline, respectively. Test compounds were administrated to mice after preparing each suspensions of the compounds in 1% aqueous solution of gum arabic.
# [3] = molecular target: T1, Cyclic guanosine monophosphate inhibiting-type cyclic adenosine monophosphate phosphodiesterase (cAMP-PDE) (Canis lupus familiaris, UniProt A0A8I3NYE0); assay: Inhibitory effect on phosphodiesterase (cGMP inhibiting-type cAMP-PDE from canine platelets); assay type: biochemical; conditions: for IC50: canine platelets, 1 μM [3H]-cAMP
# T1 construct: derived from canine platelets was prepared according to the method of Thompson et. al; from tissue; host or cells: canine platelets (DEAE-cellulose fraction)
# T1 sequence (A0A8I3NYE0 1-1135): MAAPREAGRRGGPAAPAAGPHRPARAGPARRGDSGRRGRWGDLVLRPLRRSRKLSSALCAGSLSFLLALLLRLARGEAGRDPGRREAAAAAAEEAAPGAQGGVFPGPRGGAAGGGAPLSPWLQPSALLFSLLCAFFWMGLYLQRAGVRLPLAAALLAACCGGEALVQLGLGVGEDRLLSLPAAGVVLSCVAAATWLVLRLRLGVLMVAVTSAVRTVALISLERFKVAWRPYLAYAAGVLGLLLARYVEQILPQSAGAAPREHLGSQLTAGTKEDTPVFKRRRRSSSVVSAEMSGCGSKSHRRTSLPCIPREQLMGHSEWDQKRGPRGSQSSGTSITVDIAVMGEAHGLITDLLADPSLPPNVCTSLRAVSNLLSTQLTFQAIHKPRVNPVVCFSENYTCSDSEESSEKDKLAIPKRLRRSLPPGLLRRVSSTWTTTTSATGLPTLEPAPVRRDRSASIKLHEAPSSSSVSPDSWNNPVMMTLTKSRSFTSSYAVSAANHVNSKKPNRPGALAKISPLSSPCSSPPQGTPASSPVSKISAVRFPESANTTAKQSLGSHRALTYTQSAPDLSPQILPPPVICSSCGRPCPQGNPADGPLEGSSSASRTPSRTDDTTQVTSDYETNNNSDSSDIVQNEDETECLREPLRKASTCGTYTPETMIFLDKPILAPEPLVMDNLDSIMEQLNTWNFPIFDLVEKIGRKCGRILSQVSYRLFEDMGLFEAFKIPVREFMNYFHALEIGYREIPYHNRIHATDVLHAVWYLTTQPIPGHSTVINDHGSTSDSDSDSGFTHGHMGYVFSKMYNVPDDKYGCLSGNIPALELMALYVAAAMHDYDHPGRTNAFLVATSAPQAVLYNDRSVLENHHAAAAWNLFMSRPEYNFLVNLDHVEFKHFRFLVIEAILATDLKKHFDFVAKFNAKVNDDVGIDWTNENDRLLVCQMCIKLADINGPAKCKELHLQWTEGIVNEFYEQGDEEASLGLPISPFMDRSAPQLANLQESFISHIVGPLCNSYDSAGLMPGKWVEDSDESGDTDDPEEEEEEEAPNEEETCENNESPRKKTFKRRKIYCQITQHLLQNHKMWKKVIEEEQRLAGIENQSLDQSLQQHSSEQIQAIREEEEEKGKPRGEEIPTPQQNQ
# [4] = tested on: Left Cardiac Ventricle (dp/dt max), heart rate, blood pressure; assay: Cardiotonic effect in anesthetized Beagle dogs (dp/dt max, heart rate, blood pressure); assay type: in vivo; conditions: i.v. at 0.3 mg/kg (footnote *)
# [5] = ADP at final concentration 10 μM, read-out: EC50 for Platelet Aggregation Prevention, ADP
# [6] = collagen at final concentration 20 μg/ml, read-out: EC50 for Platelet Aggregation Prevention, Collagen
# [7] = i.v., anesthetized Beagle dogs, dose not stated
SMILES,"ED50 ([1]; iv, anesthetized Beagle dogs)","% Change in Blood pressure ([1]; dog, in vivo, iv)","% Change in Heart Rate ([1]; dog, in vivo, iv)","EC50 [2, 5]","EC50 [2, 6]",ED50 (Mice),IC50 [3],% Change in Blood pressure [4],% Change in Heart Rate [4],% Change in dp/dt max in Left Cardiac Ventricle [4],"% Change in Blood pressure [1, 7]","% Change in Heart Rate [1, 7]",Effect in Test Example 4 (cardiotonic effect) compared with compound No. 2 ([1]; in words),Effect in Test Example 1 (platelet aggregation) compared with compound No. 2 ([2]; in words),Effect in Test Example 2 (thrombus-causing death) compared with compound No. 2 (Mice; in words),Effect in Test Example 3 (phosphodiesterase) compared with compound No. 2 ([3]; in words)
"O=C1CCc2cc(OCCCCc3nnnn3C3CCCCC3)ccc2N1 [Cilostazol, reference compound]",0.2 mg/kg,-2.1%,15%,10.2 µM,4.3 µM,300 mg/kg,0.6 µM,,,,,,,,,
"CCCC1=C(Nc2ccc(C3=NNC(=O)CC3)cc2)CCCC1=O [Compound No. 1, 4,5-dihydro-6-[4-[(2-propyl-3-oxo-1-cyclohexenyl)amino]phenyl]-3(2H)-pyridazine]",> 0.3 mg/kg,,,29.8 µM,9.3 µM,5 mg/kg,0.43 µM,-8.6%,5.2%,32%,,,,,,
CCCC1=C(Nc2ccc(C3=NNC(=O)CC3)cc2)CCC1=O [compound 3],0.1 mg/kg,,,22.8 µM,12.9 µM,6.8 mg/kg,0.37 µM,,,,-10.5%,7.5%,,,,
"CCCC1=C(Nc2ccc(C3=NNC(=O)CC3C)cc2)CCCC1=O (stereo not drawn) [Compound No. 2, 4,5-dihydro-5-methyl-6-[4-[(2-propyl-3-oxo-1-cyclohexenyl)amino]phenyl]-3(2H)-pyridazinone]",0.052 mg/kg,,,4.5 µM,3.6 µM,1.7 mg/kg,0.088 µM,,,,-10.0%,9.8%,as much as the effects given by the compound No. 2,as much as the effects given by the compound No. 2,as much as the effects given by the compound No. 2,as much as the effects given by the compound No. 2
